From article PMC8969509 (Journal of Antimicrobial Chemotherapy, 2022)

Target: T1, Mtb topoisomerase I (Mycobacterium tuberculosis, UniProt P9WG49)
T1 construct: gene topA
Test: biochemical

T1 sequence (P9WG49 whole entry): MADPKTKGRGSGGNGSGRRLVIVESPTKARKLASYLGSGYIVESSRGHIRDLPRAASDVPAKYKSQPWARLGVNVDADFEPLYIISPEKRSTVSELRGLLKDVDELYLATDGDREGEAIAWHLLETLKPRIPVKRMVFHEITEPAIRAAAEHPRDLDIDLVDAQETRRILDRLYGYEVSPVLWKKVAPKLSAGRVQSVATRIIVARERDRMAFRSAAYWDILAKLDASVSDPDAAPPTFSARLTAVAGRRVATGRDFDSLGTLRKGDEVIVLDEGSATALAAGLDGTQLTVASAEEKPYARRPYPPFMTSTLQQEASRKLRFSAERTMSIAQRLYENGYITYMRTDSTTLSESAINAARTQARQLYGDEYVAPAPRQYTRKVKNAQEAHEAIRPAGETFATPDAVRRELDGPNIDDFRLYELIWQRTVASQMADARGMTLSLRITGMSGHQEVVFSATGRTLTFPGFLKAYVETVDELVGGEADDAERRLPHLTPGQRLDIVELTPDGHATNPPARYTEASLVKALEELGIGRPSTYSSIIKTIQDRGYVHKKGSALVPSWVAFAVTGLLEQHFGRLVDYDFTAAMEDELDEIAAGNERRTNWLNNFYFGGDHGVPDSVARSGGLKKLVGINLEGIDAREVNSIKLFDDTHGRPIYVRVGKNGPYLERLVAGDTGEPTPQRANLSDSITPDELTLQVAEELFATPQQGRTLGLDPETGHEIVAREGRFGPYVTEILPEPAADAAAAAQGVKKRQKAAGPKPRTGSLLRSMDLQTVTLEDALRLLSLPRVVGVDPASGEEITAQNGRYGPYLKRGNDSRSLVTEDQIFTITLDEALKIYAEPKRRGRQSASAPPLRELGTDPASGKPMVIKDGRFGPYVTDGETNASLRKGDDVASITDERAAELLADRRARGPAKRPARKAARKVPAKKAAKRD

For COc1cc(NS(C)(=O)=O)ccc1Nc1c2ccccc2nc2ccccc12 [mAMSA], the IC50 was 17.4 µM.
